Laboratory results from PMC4503722, “Novel Phenotypic Outcomes Identified for a Public Collection of Approved Drugs from a Publicly Accessible Panel of Assays” (PLoS ONE, 2015).
Like-named read-outs stand apart in the source and are kept apart here.

Tests used:
Test in all cases: cells
Assay type in all cases: cell-based
HCT116 = system: HCT116
DLD-1 = system: DLD-1
Colo320 = system: Colo320
RKO = system: RKO
SNU-C1 = system: SNU-C1
SW480 = system: SW480
HT-29 = system: HT-29

Row | SMILES | Basal_Viability ATP HCT116 IC50/EC50 (HCT116; assay number 25, basal) | Basal_Viability ATP DLD-1 IC50/EC50 (DLD-1; assay number 23, basal) | Basal_Viability ATP Colo 320 IC50/EC50 (Colo320; assay number 27, basal) | Basal_Viability ATP RKO IC50/EC50 (RKO; assay number 29, basal) | Basal_Viability ATP SNU-C1 IC50/EC50 (SNU-C1; assay number 30, basal) | Basal_Viability ATP SW480 IC50/EC50 (SW480; assay number 24, basal) | Basal_Viability ATP HT-29 IC50/EC50 (HT-29; assay number 28, basal) | further results
1 | CCCCCCOc1ccccc1C(N)=O [NCGC00095049-04] | – | – | – | – | – | – | – | IC50/EC50, Basal_Viability ATP HCT116 (assay number 25) (HCT116; basal): > 6.6667 µM; IC50/EC50, Basal_Viability ATP DLD-1 (assay number 23) (DLD-1; basal): 8.6657 µM; IC50/EC50, Basal_Viability ATP Colo 320 (assay number 27) (Colo320; basal): > 20 µM; IC50/EC50, Basal_Viability ATP RKO (assay number 29) (RKO; basal): > 6.6667 µM; IC50/EC50, Basal_Viability ATP SNU-C1 (assay number 30) (SNU-C1; basal): 9.3567 µM; IC50/EC50, Basal_Viability ATP SW480 (assay number 24) (SW480; basal): > 20 µM; IC50/EC50, Basal_Viability ATP HT-29 (assay number 28) (HT-29; basal): > 20 µM
2 | CN(CCOc1ccc(CC2SC(=O)NC2=O)cc1)c1ccccn1 (stereo not shown) [NCGC00095124-08] | > 20 µM | > 20 µM | > 20 µM | > 20 µM | 8.6851 µM | > 20 µM | > 20 µM | –
3 | Cc1onc(-c2ccccc2)c1-c1ccc(S(N)(=O)=O)cc1 [NCGC00095129-06] | – | – | – | – | – | – | – | Basal_Viability ATP HCT116 IC50/EC50 (HCT116): > 20 µM; Basal_Viability ATP DLD-1 IC50/EC50 (DLD-1): > 20 µM; Basal_Viability ATP Colo 320 IC50/EC50 (Colo320): > 20 µM; Basal_Viability ATP RKO IC50/EC50 (RKO): > 20 µM; Basal_Viability ATP SNU-C1 IC50/EC50 (SNU-C1): > 20 µM; Basal_Viability ATP SW480 IC50/EC50 (SW480): > 20 µM; Basal_Viability ATP HT-29 IC50/EC50 (HT-29): > 20 µM
4 | CNS(=O)(=O)Cc1ccc2[nH]cc(CCN(C)C)c2c1 [NCGC00095838-04] | > 20 µM | > 20 µM | > 20 µM | > 20 µM | > 20 µM | > 6.6667 µM | > 20 µM | –
5 | CCN(CCO)CCCC(C)Nc1ccnc2cc(Cl)ccc12.O=S(=O)(O)O (stereo not shown) [NCGC00159483-04] | > 20 µM | > 20 µM | > 20 µM | > 20 µM | > 20 µM | > 20 µM | > 20 µM | –
6 | CC=CC1=C(C(=O)O)N2C(=O)[C@@H](NC(=O)[C@H](N)c3ccc(O)cc3)[C@H]2SC1 [NCGC00159513-03] | > 20 µM | – | – | – | – | – | – | Basal_Viability ATP DLD-1 IC50/EC50 (DLD-1; assay number 23): > 20 µM; Basal_Viability ATP Colo 320 IC50/EC50 (Colo320; assay number 27): > 20 µM; Basal_Viability ATP RKO IC50/EC50 (RKO; assay number 29): > 20 µM; Basal_Viability ATP SNU-C1 IC50/EC50 (SNU-C1; assay number 30): > 20 µM; Basal_Viability ATP SW480 IC50/EC50 (SW480; assay number 24): > 20 µM; Basal_Viability ATP HT-29 IC50/EC50 (HT-29; assay number 28): > 20 µM
7 | OC[C@@H](O)[C@H](O)[C@H](O)[C@@H](O)CO [NCGC00166072-02] | > 20 µM | > 20 µM | > 20 µM | > 20 µM | > 20 µM | > 20 µM | > 20 µM | –
8 | O.O=C1[O][Bi][O]c2ccccc21 [NCGC00166299-03] | > 20 µM | > 20 µM | > 20 µM | > 20 µM | 15.3838 µM | > 20 µM | > 20 µM | –
9 | CC(C)(C)CC(C)(C)c1cc(Cc2cc(C(C)(C)CC(C)(C)C)cc(-n3nc4ccccc4n3)c2O)c(O)c(-n2nc3ccccc3n2)c1 [NCGC00167544-02] | > 20 µM | > 20 µM | > 20 µM | > 20 µM | > 20 µM | > 20 µM | > 20 µM | –
10 | CC(C)=CC1C(C(=O)OCN2C(=O)C3=C(CCCC3)C2=O)C1(C)C (stereo not shown) [NCGC00168352-02] | – | – | – | – | – | – | – | IC50/EC50, Basal_Viability ATP HCT116 (assay number 25) (HCT116; basal): > 20 µM; IC50/EC50, Basal_Viability ATP DLD-1 (assay number 23) (DLD-1; basal): > 20 µM; IC50/EC50, Basal_Viability ATP Colo 320 (assay number 27) (Colo320; basal): > 20 µM; IC50/EC50, Basal_Viability ATP RKO (assay number 29) (RKO; basal): > 20 µM; IC50/EC50, Basal_Viability ATP SNU-C1 (assay number 30) (SNU-C1; basal): > 20 µM; IC50/EC50, Basal_Viability ATP SW480 (assay number 24) (SW480; basal): > 20 µM; IC50/EC50, Basal_Viability ATP HT-29 (assay number 28) (HT-29; basal): > 20 µM
